Results on 18 compounds are retold here after US20220274961A1, “SUBSTITUTED FUSED BI- OR TRI- HETEROCYCLIC COMPOUNDS AS EHMT2 INHIBITORS” (priority 2016, published 2022).

The target of one test is T1, human EHMT2 913-1193 (Homo sapiens, UniProt Q96KQ7).
T1 construct: recombinant purified human EHMT2 913-1193, Viva; purchased Viva
T1 sequence (Q96KQ7 913-1193): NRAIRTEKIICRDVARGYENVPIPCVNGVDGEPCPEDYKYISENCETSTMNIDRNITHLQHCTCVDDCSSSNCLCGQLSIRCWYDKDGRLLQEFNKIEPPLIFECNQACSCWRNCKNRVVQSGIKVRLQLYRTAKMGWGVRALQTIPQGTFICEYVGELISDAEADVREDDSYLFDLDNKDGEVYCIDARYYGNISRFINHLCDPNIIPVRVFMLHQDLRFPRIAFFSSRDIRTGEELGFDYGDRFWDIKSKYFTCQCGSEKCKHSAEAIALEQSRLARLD
Kind of test: biochemical. The conditions noted are these: recombinant human EHMT2 913-1193, histone H3 1-15 peptide, 3H-SAM, balanced conditions; read-out: EHMT2 PEP (IC50 μM). The source says:
Biotinylated histone peptides were synthesized by Biopeptide and HPLC-purified to >95% purity. Streptavidin Flashplates and seals were purchased from PerkinElmer and 384 Well V-bottom Polypropylene Plates were from Greiner. ^3H-labeled S-adenosylmethionine (^3H-SAM) was obtained from American Radiolabeled Chemicals with a specific activity of 80 Ci/mmol. Unlabeled SAM and S-adenosylhomocysteine (SAH) were obtained from American Radiolabeled Chemicals and Sigma-Aldrich respectively. […] 384-well Flashplates and 96-well filter binding plates were read on a TopCount microplate reader (PerkinElmer). Compound serial dilutions were performed on a Freedom EVO (Tecan) and spotted into assay plates using a Thermo Scientific Matrix PlateMate (Thermo Scientific). Reagent cocktails were added by Multidrop Combi (Thermo Scientific).
General Procedure for EHMT2 Enzyme Assay on Histone Peptide Substrate. 10-point curves of test compounds were made on a Freedom EVO (Tecan) using serial 3-fold dilutions in DMSO, beginning at 2.5 mM (final top concentration of compound was 50 μM and the DMSO was 2%). A 1 μL aliquot of the inhibitor dilution series was spotted in a polypropylene 384-well V-bottom plate (Greiner) using a Thermo Scientific Matrix PlateMate (Thermo Scientific). […] Reactions were incubated for 60 minutes at room temperature and quenched with 10 μL per well of 400 μM unlabeled SAM, then transferred to a 384-well streptavidin Flashplate (PerkinElmer) and washed in a Biotek ELx-405 well washer with 0.1% Tween after 60 minutes. 384-well Flashplates were read on a TopCount microplate reader (PerkinElmer).

In another test the target is T2, EHMT1 (Homo sapiens, UniProt Q9H9B1).
T2 sequence (Q9H9B1 1-1298): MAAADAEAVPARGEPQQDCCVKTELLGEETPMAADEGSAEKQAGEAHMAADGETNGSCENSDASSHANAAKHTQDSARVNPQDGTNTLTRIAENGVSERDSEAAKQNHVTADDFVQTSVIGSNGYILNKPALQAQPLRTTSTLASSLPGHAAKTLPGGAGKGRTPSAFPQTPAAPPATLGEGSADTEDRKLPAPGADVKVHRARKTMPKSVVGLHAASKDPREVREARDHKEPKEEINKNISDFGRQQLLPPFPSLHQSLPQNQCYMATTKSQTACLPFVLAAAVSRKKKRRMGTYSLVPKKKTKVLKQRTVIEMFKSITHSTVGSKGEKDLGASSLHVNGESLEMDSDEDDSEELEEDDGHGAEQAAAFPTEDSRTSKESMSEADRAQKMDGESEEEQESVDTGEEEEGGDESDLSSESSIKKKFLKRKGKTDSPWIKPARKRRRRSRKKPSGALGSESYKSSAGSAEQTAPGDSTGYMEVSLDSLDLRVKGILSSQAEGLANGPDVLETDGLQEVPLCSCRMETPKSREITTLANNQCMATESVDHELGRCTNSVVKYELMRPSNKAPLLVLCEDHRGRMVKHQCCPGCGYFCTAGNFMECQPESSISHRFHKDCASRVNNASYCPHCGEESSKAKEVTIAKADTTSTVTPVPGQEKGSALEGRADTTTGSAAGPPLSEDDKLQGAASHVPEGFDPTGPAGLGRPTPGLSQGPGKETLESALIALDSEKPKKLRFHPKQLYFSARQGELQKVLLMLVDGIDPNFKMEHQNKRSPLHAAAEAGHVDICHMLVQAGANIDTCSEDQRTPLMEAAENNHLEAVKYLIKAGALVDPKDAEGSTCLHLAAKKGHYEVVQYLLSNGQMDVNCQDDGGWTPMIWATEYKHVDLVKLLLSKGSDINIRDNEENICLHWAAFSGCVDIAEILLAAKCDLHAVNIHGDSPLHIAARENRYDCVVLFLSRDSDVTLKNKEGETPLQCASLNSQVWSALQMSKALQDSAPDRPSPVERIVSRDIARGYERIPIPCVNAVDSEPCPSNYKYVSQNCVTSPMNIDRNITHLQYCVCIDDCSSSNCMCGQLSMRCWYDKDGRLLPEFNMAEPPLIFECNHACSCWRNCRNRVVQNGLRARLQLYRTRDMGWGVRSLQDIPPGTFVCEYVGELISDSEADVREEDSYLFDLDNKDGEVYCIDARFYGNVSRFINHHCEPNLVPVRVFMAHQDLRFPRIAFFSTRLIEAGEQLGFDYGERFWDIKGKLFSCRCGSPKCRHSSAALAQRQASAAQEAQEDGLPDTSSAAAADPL
Put plainly: EHMT1 PEP. The format is biochemical.

Bounds are passed on as bounds.

For orientation: IC50 means the point on the concentration scale where inhibition reaches its midpoint. Turning to `CCNc1nc2cc(OC[C@H](O)CN3CCCC3)c(OC)cc2n1C` [Compound 31], the figures for the IC50 at human EHMT2 913-1193 and against EHMT1 were 0.1 to 1 µM and less than 0.1 µM, respectively.

Take `COc1cc2c(cc1OCCCN1CCCC1)nc(C)n2C1CCCC1` [Compound 23, 1-cyclopentyl-6-methoxy-2-methyl-5-(3-(pyrrolidin-1-yl)propoxy)-1H-benzo[d]imidazole]: the IC50 was in the range of 0.1 to 1 µM at human EHMT2 913-1193 and 1 to 10 µM against EHMT1.

Consider `CNc1nc2cc(OCCCN3CCCC3)c(OC)cc2n1C(C)C` [Compound 36], for which the IC50 on human EHMT2 913-1193 and at EHMT1 was less than 0.1 µM throughout.

On to `COc1cc2c(cc1CNCCN1CCCC1)N=C(NC1CCOCC1)C21CCC1` [Compound 76], for which the IC50 on human EHMT2 913-1193 and on EHMT1 was 1 to 10 µM throughout.

With `COc1cc2c(cc1OCCCN1CCCC1)nc(NC(C)C)n2C` [Compound 28], the IC50 on human EHMT2 913-1193 and on EHMT1 was 0.1 to 1 µM in each case.

For `COc1cc2c(cc1C#CCN1CCCC1)N=C(N)C21CCC1` [Compound 24, 5′-methoxy-6′-(3-(pyrrolidin-1-yl)prop-1-yn-1-yl)spiro[cyclobutane-1,3′-indol]-2′-amine], the IC50 at human EHMT2 913-1193 and against EHMT1 was less than 0.1 µM in each case.

As to `COc1cc2c(cc1OCCCN1CCCC1)nc(NCC(F)(F)F)n2C` [Compound 12, 6-methoxy-1-methyl-5-(3-(pyrrolidin-1-yl)propoxy)-N-(2,2,2-trifluoroethyl)-1H-benzo[d]imidazol-2-amine], the IC50 on human EHMT2 913-1193 and at EHMT1 was 1 to 10 µM in each case.

In the case of `COc1cc2c(cc1OCCCN1CCCC1)nc(NC1CCCC1)n2C` [Compound 30], the IC50 at human EHMT2 913-1193 and on EHMT1 was 0.1 to 1 µM in each case.

Consider `CNC1=Nc2cc(C#CCN3CCCCC3)c(OC)cc2C12CCC2` [Compound 75, 5′-methoxy-N-methyl-6′-(3-(piperidin-1-yl)prop-1-yn-1-yl)spiro[cyclobutane-1,3′-indol]-2′-amine], for which the IC50 on human EHMT2 913-1193 and on EHMT1 was less than 0.1 µM in each case.

Turning to `COc1cc2c(cc1OCCCN1CCCC1)nc(N)n2CC(F)(F)F` [Compound 11, 6-methoxy-5-(3-(pyrrolidin-1-yl)propoxy)-1-(2,2,2-trifluoroethyl)-1H-benzo[d]imidazole-2-amine], the IC50 at human EHMT2 913-1193 and on EHMT1 was 0.1 to 1 µM in each case.

Consider `COc1cc2c(cc1OC[C@H](O)CN1CCCC1)nc(NC1CCCC1)n2C` [Compound 33], for which the IC50 at human EHMT2 913-1193 and against EHMT1 was 0.1 to 1 µM throughout.

For the compound `COc1cc2c(cc1OC[C@H](O)CN1CCCC1)nc(NC1CCOCC1)n2C` [Compound 35], the IC50 on human EHMT2 913-1193 and against EHMT1 was 1 to 10 µM in each case.

In the case of `CCNc1nc2cc(OCCCN3CCCC3)c(OC)cc2n1C` [Compound 27], the IC50 on human EHMT2 913-1193 is 0.1 to 1 µM; on EHMT1 it was less than 0.1 µM.

Take `CCn1c(NC)nc2cc(CNCCN3CCCC3)c(OC)cc21` [Compound 41]: the IC50 at human EHMT2 913-1193 and at EHMT1 was less than 0.1 µM in each case.

`CNc1nc2cc(CNCCN3CCCC3)c(Cl)cc2n1C(C)C` [Compound 138]: the IC50 lay in the range of 1 to 10 µM at human EHMT2 913-1193 and 0.1 to 1 µM against EHMT1.

With `CNC1=Nc2cc(C#CCN3CCC(F)C3)c(OC)cc2C12CCC2` (stereo not drawn) [Compound 100], the IC50 on human EHMT2 913-1193 and against EHMT1 was 0.1 to 1 µM in each case.

On to `CCNc1nc2cc(OCCCN3CCCC3)c(OC)cc2n1CC` [Compound 39], for which the IC50 at human EHMT2 913-1193 and at EHMT1 was less than 0.1 µM in each case.

For `CCCNC1=Nc2cc(CNCCN3CCCC3)c(OC)cc2C12CCC2` [Compound 73], the IC50 at human EHMT2 913-1193 and on EHMT1 was less than 0.1 µM each time.
